Measurements: patent US9512089B2, “Tetrazole-substituted arylamides as P2X3 and P2X2/3 antagonists” (Roche Palo Alto LLC, priority 2007, dated 2016)

Target: T1, P2X2/3 receptor (Homo sapiens, UniProt P56373+Q9UBL9)
T1 construct: expressed in transfected cells; host or cells: CHO-K1
T1 sequence (P56373 1-397): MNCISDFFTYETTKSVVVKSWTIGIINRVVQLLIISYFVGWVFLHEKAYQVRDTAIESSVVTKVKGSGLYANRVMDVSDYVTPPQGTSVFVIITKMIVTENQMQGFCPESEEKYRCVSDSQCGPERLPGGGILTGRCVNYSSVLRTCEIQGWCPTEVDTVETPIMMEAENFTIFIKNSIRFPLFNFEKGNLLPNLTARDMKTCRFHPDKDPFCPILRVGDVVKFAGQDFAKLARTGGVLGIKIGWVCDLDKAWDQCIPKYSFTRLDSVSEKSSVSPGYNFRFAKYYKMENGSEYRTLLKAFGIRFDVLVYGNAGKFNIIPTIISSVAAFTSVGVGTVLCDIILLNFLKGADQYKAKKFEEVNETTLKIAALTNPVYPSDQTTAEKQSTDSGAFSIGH
T1 sequence (Q9UBL9 1-471): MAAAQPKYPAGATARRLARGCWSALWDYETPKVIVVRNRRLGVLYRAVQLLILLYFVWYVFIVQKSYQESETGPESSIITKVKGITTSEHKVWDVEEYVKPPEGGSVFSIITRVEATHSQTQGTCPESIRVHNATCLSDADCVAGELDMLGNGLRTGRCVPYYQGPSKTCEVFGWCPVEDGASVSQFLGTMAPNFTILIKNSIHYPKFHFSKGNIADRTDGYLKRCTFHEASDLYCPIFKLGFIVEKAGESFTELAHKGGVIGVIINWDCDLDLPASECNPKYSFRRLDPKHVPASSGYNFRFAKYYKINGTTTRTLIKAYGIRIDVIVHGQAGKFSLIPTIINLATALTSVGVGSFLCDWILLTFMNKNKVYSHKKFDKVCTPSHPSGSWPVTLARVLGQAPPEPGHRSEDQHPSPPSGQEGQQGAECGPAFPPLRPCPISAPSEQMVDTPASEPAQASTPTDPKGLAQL
Assay: P2X2/3 FLIPR (Fluorometric Imaging Plate Reader) assay
Type: cell-based
Conditions: CHO-K1 cells transfected with human P2X2/3; agonist α,β-meATP 5 μM; Fluo-3 fluorescence
Procedure: CHO-K1 cells were transfected with cloned rat P2X3 or human P2X2/3 receptor subunits and passaged in flasks. 18-24 hours before the FLIPR experiment, cells were released from their flasks, centrifuged, and resuspended in nutrient medium at 2.5×10^5 cells/ml. The cells were aliquoted into black-walled 96-well plates at a density of 50,000 cells/well and incubated overnight in 5% CO2 at 37° C. On the day of the experiment, cells were washed in FLIPR buffer (calcium- and magnesium-free Hank's balanced salt solution, 10 mM HEPES, 2 mM CaCl2, 2.5 mM probenecid; FB). Each well received 100 μl FB and 100 μl of the fluorescent dye Fluo-3 AM [2 μM final conc.]. […]
Test compounds (dissolved in DMSO at 10 mM and serially diluted with FB) or vehicle were added to each well (25 μl of a 4× solution) and allowed to equilibrate for 20 minutes at room temperature. The plates were then placed in the FLIPR and a baseline fluorescence measurement (excitation at 488 nm and emission at 510-570 nm) was obtained for 10 seconds before a 100 μl/well agonist or vehicle addition. […] Fluorescence was measured for an additional 2 minutes at 1 second intervals after agonist addition. A final addition of ionomycin (5 μM, final concentration) was made to each well of the FLIPR test plate to establish cell viability and maximum fluorescence of dye-bound cytosolic calcium. […]

CCc1nnnn1-c1cc(C(=O)NC(C)c2cnccn2)cc(-c2ccc(C)cc2)c1 (stereo not shown) [5-(5-ethyl-tetrazol-1-yl)-4′-methyl-biphenyl-3-carboxylic acid (1-pyrazin-2-yl-ethyl)-amide]
IC50: ~7.94 nM
